In publication PMC7733455, “A novel multistage antiplasmodial inhibitor targeting Plasmodium falciparum histone deacetylase 1” (Cell Discovery, 2020):

How the values were obtained:
[1] = tested on: P. falciparum isolate 6218; assay: 3-day SYBR Green I GIA, field isolate 6218; type: cell-based; details: Plasmodium falciparum; artemisinin- and piperaquine-resistant isolate; read-out: Resistant isolates EC50, 6218
Experimental: (§1) A 3-day SYBR Green I inhibition EC50 assay was performed as described previously. Briefly, highly synchronized ring-stage parasites by 5% sorbitol (1% parasitemia and 2% hematocrit) were incubated in a 96-well plate with compounds in a total volume of 200 μL. […] The parasites were cultured for 72 h before SYBR Green I staining as described above. The EC50 was calculated by GraphPad Prism. DHA was used as a positive control, and the final concentration of DMSO was 1%.

P. falciparum 3D7 [2] = assay: Ring-stage survival assay (RSA), sensitive strain 3D7; type: cell-based, Plasmodium falciparum; details: 700 nM
P. falciparum GB4 = assay: 3-day SYBR Green I GIA, strain GB4; type: cell-based; details: Plasmodium falciparum; GB4 resistant to chloroquine; read-out: Resistant isolates EC50, GB4
Experimental: as §1

P. falciparum CP286 = assay: 3-day SYBR Green I GIA, strain CP286; type: cell-based; details: Plasmodium falciparum; CP286 resistant to pyrimethamine and chloroquine; read-out: Resistant isolates EC50, CP286
Experimental: as §1

P. falciparum C2A = assay: 3-day SYBR Green I GIA, strain C2A; type: cell-based; details: Plasmodium falciparum, read-out: Resistant isolates EC50, C2A
Experimental: as §1

[3] = tested on: P. falciparum isolate 6320; assay: 3-day SYBR Green I GIA, field isolate 6320; type: cell-based; details: Plasmodium falciparum; artemisinin- and piperaquine-resistant isolate; read-out: Resistant isolates EC50, 6320
Experimental: as §1

[4] = tested on: P. falciparum clinical isolates 6218 and 6320; assay: Ring-stage survival assay (RSA), isolates 6218 and 6320; type: cell-based, Plasmodium falciparum; details: 700 nM, 6 h exposure, synchronized rings of isolates 6218 and 6320
Experimental: An RSA was performed as described previously[65] to evaluate the activity of JX21108 against the artemisinin- and piperaquine-resistant P. falciparum clinical isolates 6218 and 6320[43]. Briefly, parasites were highly synchronized at 0–3 hpi by a 60%/40%-Percoll gradient[66] followed by 5% D-sorbitol[67] treatment after 3 h. The parasite suspension (0.5%–1% parasitemia, 2% hematocrit) was incubated with compounds at 700 nM in a total volume of 2 mL in a 48-well plate for 6 h. After that, the culture mixture was washed three times with 15 mL of CM before another 66 h of cultivation with CM. A Giemsa-stained blood smear was made after cultivation. Parasitemia was counted from at least 10,000 RBCs by microscopy. The survival rate was calculated as the percentage of that in DMSO control. DHA at a concentration of 700 nM served as a positive control.

P. falciparum Dd2 = assay: 3-day SYBR Green I GIA, multidrug-resistant strain Dd2; type: cell-based, Plasmodium falciparum; details: Plasmodium falciparum, 72 h; 3-day SYBR Green I GIA, multidrug-resistant strain Dd2; read-out: Antiplasmodial activity EC50, Dd2
Experimental: as §1

293T cells = assay: In vitro cytotoxicity analysis (CellTiter-Glo), 293T
Experimental: (§2) In all, 1% DMSO was used as a negative control. The inhibition of each drug was normalized to that of the DMSO control. EC50 was calculated by GraphPad Prism. Three independent assays with two technical replicates each time were conducted in this experiment.

[5] = as above; details: human, 293T cells, Cytotoxicity EC50, 293T, 72 h, CellTiter-Glo
Experimental: as §2

P. falciparum 3D7 [6] = assay: 3-day SYBR Green I growth inhibition assay (GIA), strain 3D7; type: cell-based, Plasmodium falciparum; details: Plasmodium falciparum, 3D7, 72 h, 3-day SYBR Green I GIA, drug-sensitive strain 3D7; read-out: Antiplasmodial activity EC50, 3D7
Experimental: as §1

HepG2 cells = assay: In vitro cytotoxicity analysis (CellTiter-Glo), HepG2
Experimental: as §2

[7] = as above; details: human, HepG2 cells
Experimental: as §2

[8] = tested on: parasite histone H3 acetylation; assay: Western blot of histone H3 acetylation in parasites; type: cell-based, Plasmodium falciparum; details: 4 h treatment of asynchronous 3D7; quisinostat/JX21108 5 and 20 nM, SAHA 500 nM
Experimental: Then the parasite samples were harvested and treated with 0.15% saponin to remove the RBC proteins and sonicated in 1% NP40 lysis buffer. After centrifugation at 12,000× g for 15 min, the supernatant was resuspended in a routine SDS loading buffer. Parasite proteins were separated by 10% SDS-PAGE and transferred onto PVDF membranes (Millipore). […] A2348) followed by a secondary antibody conjugated with HRP (Jackson Immuno Research Laboratories). The chemiluminescent HRP substrate Immobilon Western Kit (Millipore) was used for signal detection.

SMILES	EC50 (P. falciparum Dd2) [nM]	EC50 (P. falciparum 3D7 [6]) [nM]	EC50 [1] [nM]	RSA effect on ring-stage parasites of 3D7 (P. falciparum 3D7 [2])	EC50 (P. falciparum GB4) [nM]	EC50 (P. falciparum CP286) [nM]	EC50 (P. falciparum C2A) [nM]	EC50 [3] [nM]	RSA survival rate [4] [%]	Selectivity index for 293T (EC50 293T/EC50 3D7) (293T cells)	EC50 at 72 h [5] [nM]	Selectivity index for HepG2 (EC50 HepG2/EC50 3D7) (HepG2 cells)	EC50 at 72 h [7] [nM]	pan-acetylation levels of parasite histone H3 [8]
C[C@H]1[C@@H](O)O[C@@H]2O[C@@]3(C)CC[C@H]4[C@H](C)CC[C@@H]1[C@@]24OO3 [DHA, dihydroartemisinin, reference compound]	–	–	5.5 ± 1.1	efficiently killed the ring-stage parasites	3.2 ± 1.2	5.6 ± 2.4	3.7 ± 2.4	6.5 ± 1.4	~8	–	–	–	–	–
O=C(CCCCCCC(=O)Nc1ccccc1)NO [SAHA]	–	–	–	–	–	–	–	–	–	–	–	–	–	greatly increased the pan-acetylation levels of parasite histone H3

Second part, led by results:

EC50 (P. falciparum Dd2) [nM]	EC50 (P. falciparum 3D7 [6]) [nM]	SMILES	EC50 [1] [nM]	RSA effect on ring-stage parasites of 3D7 (P. falciparum 3D7 [2])	EC50 (P. falciparum GB4) [nM]	EC50 (P. falciparum CP286) [nM]	EC50 (P. falciparum C2A) [nM]	EC50 [3] [nM]	RSA survival rate [4] [%]	Selectivity index for 293T (EC50 293T/EC50 3D7) (293T cells)	EC50 at 72 h [5] [nM]	Selectivity index for HepG2 (EC50 HepG2/EC50 3D7) (HepG2 cells)	EC50 at 72 h [7] [nM]	pan-acetylation levels of parasite histone H3 [8]
5.4 ± 0.2	10.5 ± 0.1	Cl.O=C(NO)c1cnc(N2CCC3(CCN(Cc4ccc5c(c4)OCO5)C3)C2)nc1 (centres unmarked) [JX21140]	–	–	–	–	–	–	–	235	2450 ± 301	47	493 ± 149	–
1.736 ± 0.005	3.3 ± 0.5	Cl.Cn1cc(CN2CCC3(CCN(c4ncc(C(=O)NO)cn4)C3)C2)c2cc(Br)ccc21 (centres unmarked) [JX21141]	–	–	–	–	–	–	–	189	633 ± 209	88	294 ± 45	–
3.4 ± 2.2	13.6 ± 4.2	COc1ccc2c(CN3CCC4(CCN(c5ncc(C(=O)NO)cn5)C4)C3)cn(C)c2c1.Cl (centres unmarked) [JX21142]	–	–	–	–	–	–	–	90	1230 ± 102	72	975 ± 1	–
